Structures can show the parent of a compound that is named as a salt. The source made the active and inactive calls. The calls are words filed in the database; no cut-off is given here.
Key:
[1] = system: HT-29; assay: Cytotoxicity in human HT-29 cells assessed as reduction in cell viability incubated for 48 hrs by MTT assay; format: functional, cell-based; conditions: HT-29, 48 h
[2] = system: A549; assay: Cytotoxicity in human A549 cells assessed as reduction in cell viability incubated for 48 hrs by MTT assay; format: functional, cell-based; conditions: A549, 48 h
[3] = system: U-251; assay: Cytotoxicity in human U251 cells assessed as reduction in cell viability incubated for 48 hrs by MTT assay; format: functional, cell-based; conditions: U-251, 48 h
[4] = system: U-87 MG; assay: Cytotoxicity in human U87 cells assessed as reduction in cell viability incubated for 48 hrs by MTT assay; format: functional, cell-based, U-87MG ATCC
[5] = system: SMMC-7721; assay: Cytotoxicity in human SMMC7721 cells assessed as reduction in cell viability incubated for 48 hrs by MTT assay; format: functional, cell-based; conditions: SMMC-7721, 48 h
[6] = system: HepG2; assay: Cytotoxicity in human HepG2 cells assessed as reduction in cell viability incubated for 48 hrs by MTT assay; format: functional, cell-based; conditions: HepG2, 48 h
[7] = system: A549; assay: Induction of cell cycle arrest in human A549 cells assessed as accumulation at G1 phase incubated for 24 hrs by propidium iodide staining based flow cytometry; format: functional
[8] = system: A549; assay: Induction of cell cycle arrest in human A549 cells assessed as accumulation at G1 phase at 10 uM incubated for 24 hrs by propidium iodide staining based flow cytometry (reference value: 66.99%); format: functional
[9] = system: A549; assay: Induction of cell cycle arrest in human A549 cells assessed as accumulation at G2 phase at 10 uM incubated for 24 hrs by propidium iodide staining based flow cytometry (reference value: 13.54%); format: functional
[10] = system: A549; assay: Induction of cell cycle arrest in human A549 cells assessed as accumulation at S phase at 10 uM incubated for 24 hrs by propidium iodide staining based flow cytometry (reference value: 19.47%); format: functional
[11] = system: A549; assay: Induction of cell cycle arrest in human A549 cells assessed as accumulation at G1 phase at 15 uM incubated for 24 hrs by propidium iodide staining based flow cytometry (reference value: 66.99%); format: functional
[12] = system: A549; assay: Induction of cell cycle arrest in human A549 cells assessed as accumulation at G2 phase at 15 uM incubated for 24 hrs by propidium iodide staining based flow cytometry (reference value: 13.54%); format: functional
[13] = system: A549; assay: Induction of cell cycle arrest in human A549 cells assessed as accumulation at S phase at 15 uM incubated for 24 hrs by propidium iodide staining based flow cytometry (reference value: 19.47%); format: functional
[14] = system: A549; assay: Induction of cell cycle arrest in human A549 cells assessed as accumulation at G1 phase at 20 uM incubated for 24 hrs by propidium iodide staining based flow cytometry (reference value: 66.99%); format: functional
[15] = system: A549; assay: Induction of cell cycle arrest in human A549 cells assessed as accumulation at G2 phase at 20 uM incubated for 24 hrs by propidium iodide staining based flow cytometry (reference value: 13.54%); format: functional
[16] = system: A549; assay: Induction of cell cycle arrest in human A549 cells assessed as accumulation at S phase at 20 uM incubated for 24 hrs by propidium iodide staining based flow cytometry (reference value: 19.47%); format: functional
[17] = system: A549; assay: Induction of apoptosis in human A549 cells assessed as early apoptotic cells level at 10 uM incubated for 24 hrs by Annexin V-FITC and propidium iodide staining based flow cytometry (reference value: 1.81%); format: functional
[18] = system: A549; assay: Induction of apoptosis in human A549 cells assessed as late apoptotic cells level at 10 uM incubated for 24 hrs by Annexin V-FITC and propidium iodide staining based flow cytometry (reference value: 4.14%); format: functional
[19] = system: A549; assay: Induction of apoptosis in human A549 cells assessed as necrotic cells level at 10 uM incubated for 24 hrs by Annexin V-FITC and propidium iodide staining based flow cytometry (reference value: 3.23%); format: functional
[20] = system: A549; assay: Induction of apoptosis in human A549 cells assessed as early apoptotic cells level at 15 uM incubated for 24 hrs by Annexin V-FITC and propidium iodide staining based flow cytometry (reference value: 1.81%); format: functional
[21] = system: A549; assay: Induction of apoptosis in human A549 cells assessed as late apoptotic cells level at 15 uM incubated for 24 hrs by Annexin V-FITC and propidium iodide staining based flow cytometry (reference value: 4.14%); format: functional
[22] = system: A549; assay: Induction of apoptosis in human A549 cells assessed as necrotic cells level at 15 uM incubated for 24 hrs by Annexin V-FITC and propidium iodide staining based flow cytometry (reference value: 3.23%); format: functional
[23] = system: A549; assay: Induction of apoptosis in human A549 cells assessed as early apoptotic cells level at 20 uM incubated for 24 hrs by Annexin V-FITC and propidium iodide staining based flow cytometry (reference value: 1.81%); format: functional
[24] = system: A549; assay: Induction of apoptosis in human A549 cells assessed as late apoptotic cells level at 20 uM incubated for 24 hrs by Annexin V-FITC and propidium iodide staining based flow cytometry (reference value: 4.14%); format: functional
[25] = system: A549; assay: Induction of apoptosis in human A549 cells assessed as necrotic cells level at 20 uM incubated for 24 hrs by Annexin V-FITC and propidium iodide staining based flow cytometry (reference value: 3.23%); format: functional
[26] = system: A549; assay: Cytotoxicity in human A549 cells assessed as reduction in cell viability incubated for 48 hrs in presence of pan-caspase inhibitor Z-VAD-fmk by MTT assay; format: functional, cell-based
[27] = system: A549; assay: Induction of DNA damage in human A549 cells assessed as increase in expression of gamma-H2AX protein expression by Western blot analysis; format: functional, cell-based
[28] = system: HT-29; assay: Cytotoxicity in human HT-29 cells assessed as reduction in cell viability at 40 uM incubated for 48 hrs by MTT assay; format: functional, cell-based
[29] = system: A549; assay: Cytotoxicity in human A549 cells assessed as reduction in cell viability at 40 uM incubated for 48 hrs by MTT assay; format: functional, cell-based
[30] = system: U-251; assay: Cytotoxicity in human U251 cells assessed as reduction in cell viability at 40 uM incubated for 48 hrs by MTT assay; format: functional, cell-based
[31] = system: U-87 MG; assay: Cytotoxicity in human U87 cells assessed as reduction in cell viability at 40 uM incubated for 48 hrs by MTT assay; format: functional, cell-based; conditions: U-87MG ATCC
[32] = system: SMMC-7721; assay: Cytotoxicity in human SMMC7721 cells assessed as reduction in cell viability at 40 uM incubated for 48 hrs by MTT assay; format: functional, cell-based
[33] = system: HepG2; assay: Cytotoxicity in human HepG2 cells assessed as reduction in cell viability at 40 uM incubated for 48 hrs by MTT assay; format: functional, cell-based

`CC(C)[C@@H]1CC[C@]2(C)C1=CC[C@]1(C)[C@H]3CC[C@@]4(C)O[C@H]([C@H]4O)[C@]3(C)[C@@H](O)C[C@H]12` was tested. Which IC50 [1] did it give?
The IC50 was 14.6 µM.

What about the IC50 [2] of the same compound?
Its IC50 is 6.2 µM.

What about the IC50 [3] of the same compound?
Its IC50 is 12.6 µM.

And the IC50 [4]?
Its IC50 is 16.4 µM.

What about the IC50 [5] of the same compound?
Its IC50 is 15.2 µM.

And the IC50 [6]?
The IC50 was 20.1 µM.

What about the Activity [7] of the same compound?
Its Activity is “Dose-dependent effect”.

What about the Activity [8] of the same compound?
The Activity was 76.4%.

What about the Activity [9] of the same compound?
The Activity was 7.51%.

And the Activity [10]?
Its Activity is 16.1%.

And the Activity [11]?
Its Activity is 83.33%.

What about the Activity [12] of the same compound?
The Activity was 5.06%.

What about the Activity [13] of the same compound?
Its Activity is 11.62%.

What about the Activity [14] of the same compound?
The Activity was 85.86%.

And the Activity [15]?
Its Activity is 3.76%.

What about the Activity [16] of the same compound?
Its Activity is 10.38%.

What about the Activity [17] of the same compound?
Its Activity is 2.17%.

What about the Activity [18] of the same compound?
The Activity was 3.93%.

And the Activity [19]?
The Activity was 3.23%.

And the Activity [20]?
Its Activity is 2.43%.

And the Activity [21]?
The Activity was 6.05%.

And the Activity [22]?
Its Activity is 3.79%.

And the Activity [23]?
The Activity was 16.83%.

What about the Activity [24] of the same compound?
Its Activity is 20.57%.

What about the Activity [25] of the same compound?
The Activity was 3.3%.

And the Activity [26]?
Its Activity is “inactive”.

What about the Activity [27] of the same compound?
Its Activity is “Dose-dependent effect”.

`CC(C)[C@@H]1CC[C@]2(C)C1=CC[C@]1(C)[C@H]3CC[C@](C)(O)[C@H](O)[C@@H](O)[C@]3(C)[C@@H](O)C[C@H]12` was tested. Which Activity [28] did it give?
The Activity was “inactive”.

And the Activity [29]?
Its Activity is “inactive”.

What about the Activity [30] of the same compound?
Its Activity is “inactive”.

And the Activity [31]?
Its Activity is “inactive”.

What about the Activity [32] of the same compound?
The Activity was “inactive”.

What about the Activity [33] of the same compound?
The Activity was “inactive”.

`COc1cccc2c1C(=O)c1c(O)c3c(c(O)c1C2=O)C[C@@](O)(C(=O)CO)C[C@@H]3O[C@H]1C[C@H](N)[C@H](O)[C@H](C)O1` [DOXORUBICIN HYDROCHLORIDE] was tested. Which IC50 [3] did it give?
Its IC50 is 2.9 µM.

What about the IC50 [4] of the same compound?
The IC50 was 1.1 µM.

For `CC1=C[C@@H](O)[C@@]2(C)[C@H](CC1)[C@@]1(C)CC=C3[C@H](C(C)C)CC[C@@]3(C)[C@@H]1C[C@@H]2O`, which IC50 [1] is on record?
Its IC50 is 24.2 µM.

And the IC50 [2]?
The IC50 was greater than 40 µM.

What about the IC50 [3] of the same compound?
Its IC50 is greater than 40 µM.

And the IC50 [4]?
The IC50 was greater than 40 µM.

What about the IC50 [5] of the same compound?
Its IC50 is greater than 40 µM.

And the IC50 [6]?
The IC50 was greater than 40 µM.

With `CC(C)[C@@H]1CC[C@]2(C)C1=CC[C@]1(C)[C@H]3CC[C@]4(C)O[C@@H]4C(=O)[C@]3(C)[C@@H](O)C[C@H]12` as the compound, how does the Activity [28] read?
The Activity was “inactive”.

And the Activity [29]?
The Activity was “inactive”.

And the Activity [30]?
Its Activity is “inactive”.

And the Activity [31]?
The Activity was “inactive”.

What about the Activity [32] of the same compound?
Its Activity is “inactive”.

And the Activity [33]?
The Activity was “inactive”.

How did the Activity [28] turn out when `CC(C)[C@@H]1CC[C@]2(C)C1=CC[C@]1(C)[C@H]3CC[C@]4(C)O[C@@H]4[C@@H](O)[C@]3(C)[C@@H](O)C[C@H]12` was run?
Its Activity is “inactive”.

What about the Activity [29] of the same compound?
Its Activity is “inactive”.

What about the Activity [30] of the same compound?
The Activity was “inactive”.

And the Activity [31]?
The Activity was “inactive”.

What about the Activity [32] of the same compound?
Its Activity is “inactive”.

What about the Activity [33] of the same compound?
Its Activity is “inactive”.

Which IC50 [1] does the source give for `C=C1CC[C@@H]2[C@@]3(C)CC=C4[C@H](C(C)C)CC[C@@]4(C)[C@@H]3C[C@H](O)[C@@]2(C)[C@@H]2O[C@@H](c3ccc(O)cc3)O[C@@H]12` here?
Its IC50 is greater than 40 µM.

And the IC50 [2]?
The IC50 was greater than 40 µM.

What about the IC50 [3] of the same compound?
The IC50 was greater than 40 µM.

And the IC50 [4]?
The IC50 was greater than 40 µM.

What about the IC50 [5] of the same compound?
The IC50 was 25.4 µM.

What about the IC50 [6] of the same compound?
Its IC50 is greater than 40 µM.

Which IC50 [1] does the source give for `C=C1CC[C@@H]2[C@@]3(C)CC=C4[C@H](C(C)C)CC[C@@]4(C)[C@@H]3C[C@H](O)[C@@]2(C)[C@H](O)[C@H]1O` here?
Its IC50 is greater than 40 µM.

What about the IC50 [2] of the same compound?
Its IC50 is 16.3 µM.

And the IC50 [3]?
Its IC50 is greater than 40 µM.

And the IC50 [4]?
Its IC50 is greater than 40 µM.

What about the IC50 [5] of the same compound?
Its IC50 is greater than 40 µM.

And the IC50 [6]?
Its IC50 is 8.2 µM.

— ChEMBL document CHEMBL4392867, “Asperunguisins A-F, Cytotoxic Asperane Sesterterpenoids from the Endolichenic Fungus Aspergillus unguis” (J Nat Prod, 2019)
